Experiments:
[1] = test system: C57BL/6 mice given 3% DSS (acute colitis); assay: DSS-induced acute colitis model; assay type: in vivo; conditions: 3% DSS for 6 days, oral gavage
Source text: We examined whether oral administration of inulin gel loaded with an immune tolerizing drug can exert therapeutic efficacy against colitis. Mice were given 3% DSS in drinking water for 6 days to induce acute colitis. Starting day 0, mice were also orally gavaged with either PBS, an Ahr ligand, indole-3-aldehyde (IALD), or inulin gel formulated with IALD (inulin gel + IALD) (FIG. 5A).
Method: Six-week-old female C57BL/6 mice were acclimatized for 2 weeks before the start of the study. To induce colitis, mice were given 3% DSS (40 kDa; Alfa Aesar) supplemented in the drinking water for 6 days, followed by giving normal water. Inulin gel + IALD, IALD or PBS was orally gavaged into mice on predetermined days. The inulin gel + IALD was prepared by dissolving 300 mg of inulin from chicory (Sigma-Aldrich) in 0.9 ml deionized water and 0.1 ml IALD solution (50 mg/mL, DMSO). The inulin solution was thoroughly mixed with IALD solution by vortex and was heated to 70° C. for 5 min. The formulation was kept at room temperature for 12 h for gelation. The IALD was prepared similarly without adding the inulin. Bodyweight were measured daily over the experimental period. On day 9, mice were sacrificed, and the entire colon was excised. Colon length and the cecum weight was measured.

[2] = test system: BABL/c mice sensitized with OVA/Alum (OVA allergy); assay type: in vivo; conditions: after the 3rd OVA challenge; escalated dose OIT
Experimental: To simulate the widely used therapeutic plan in clinic, we next provided the escalated dose of OVA in OIT treatment (FIG. 2a).
Preparation and characterization of inulin gel, PE or OVA loaded inulin gel. For OVA-related study, 495 mg of inulin from chicory (Sigma-Aldrich) was dissolved in 1.35 mL PBS and heated for 5 min. OVA (Sigma-Aldrich) was added right after cool-down of inulin. For PE-related study, 300 mg of inulin from chicory (Sigma-Aldrich) was dissolved in 0.9 mL deionized water, after heating for 5 min, 8 mg of PE was added right after cool-down. Samples were kept at 4° C. for 24 h. […] The content of protein in peanut extraction (around 20%) was determined by BCA assay.
In vivo oral sensitization, immunotherapy, and challenge. […] Body weight before all times of i.g. challenge were recorded, while the body temperature in the last time of i.g. challenge was measured. […] On day 73, mice were i.p. injected with 125 µg PE and the body temperature was recorded at preset times via rectal temperature probe.
Assessment of hypersensitivity reactions and diarrhea. Anaphylactic symptoms were evaluated between 30 to 50 minutes after i.p. challenge of PE (125 µg/dose) or i.g. challenge of OVA (50 mg/dose). […] For OVA study, mice with profuse liquid stool up to 1 h after i.g. challenge were recorded as diarrhea-positive animals. […]
Intestinal mast cell quantification. […]

Molecule: O=Cc1c[nH]c2ccccc12 [IALD, indole-3-aldehyde]
- bodyweight loss ([1]; daily bodyweight for 9 d): significant bodyweight loss
- shortening of the colon length ([1]; day 9): shortening of the colon length

B1: OVA: albumin (OVA) protein, unformulated allergen given orally as OIT comparator (protein, UniProt P01012 2-386, looked up)
Ovalbumin: GSIGAASMEFCFDVFKELKVHHANENIFYCPIAIMSALAMVYLGAKDSTRTQINKVVRFDKLPGFGDSIEAQCGTSVNVHSSLRDILNQITKPNDVYSFSLASRLYAEERYPILPEYLQCVKELYRGGLEPINFQTAADQARELINSWVESQTNGIIRNVLQPSSVDSQTAMVLVNAIVFKGLWEKAFKDEDTQAMPFRVTEQESKPVQMMYQIGLFRVASMASEKMKILELPFASGTMSMLVLLPDEVSGLEQLESIINFEKLTEWTSSNVMEERKIKVYLPRMKMEEKYNLTSVLMAMGITDVFSSSANLSGISSAESLKISQAVHAAHAEINEAGREVVGSAEAGVDAASVSEEFRADHPFLFCIKHIATNAVLFFGRCVSP
- death after OVA challenge [2]: Some mice in the OVA group died

From patent US20230346826A1, “COMPOSITIONS AND METHODS FOR TREATING AND/OR PREVENTING AUTOIMMUNE DISORDERS” (The Regents of the University of Michigan, priority 2020, published 2023)
